Results published in publication PMC7071106 (Molecules, 2020).
Like-named read-outs stand apart in the source and are kept apart here.

Columns and labels:
[1] = Cytotoxicity on VERO cell line (sulforhodamine B method); type: cell-based, mammalian; conditions: African green monkey, 1–100 µM, means of three experiments
Protocol: We cultivated 1.5 × 10^4 VERO cells in a 96-well plate and incubated in DMEM media complemented with 10% fetal bovine serum, 100 µg/mL streptomycin, and 100 UI/mL penicillin. The culture was incubated at 37 °C in a 5% CO2 atmosphere with 95% humidity for 48 h. […] After 48 h of incubation, viability of the cells was estimated using the sulforhodamine B method. The concentration of the compounds that killed 50% of the cells (CC50) was calculated by nonlinear fit (GraphPad Prism 4 software). All concentrations were evaluated in triplicate.

Giardia duodenalis = assay: In vitro giardicidal susceptibility assay (trophozoite growth inhibition); type: cell-based, Giardia duodenalis (G. intestinalis strain IMSS:0696:1); conditions: for SI = CC50/IC50 G. duodenalis: CC50 VERO cells / IC50 G. duodenalis; for IC50: trophozoites, 48 h incubation then 48 h subculture, means of three experiments, read-out: IC50 G. duodenalis
Protocol: (§1) G. intestinalis strain IMSS:0696:1 and T. vaginalis strain GT3 were cultured in TYI-S-33 medium, complemented with 10% calf serum and bovine bile. […] Subsequently, trophozoites were washed and subcultured for another 48 h in fresh medium without any drugs. Once this time was reached, trophozoites were counted and the median inhibitory concentration (IC50) was calculated. All the experiments were completed in triplicate.

Trichomonas vaginalis = assay: In vitro trichomonicidal susceptibility assay (trophozoite growth inhibition); type: cell-based, Trichomonas vaginalis strain GT3; conditions: for SI = CC50/IC50 T. vaginalis: CC50 VERO cells / IC50 T. vaginalis; for IC50: Trichomonas vaginalis, trophozoites, 48 h incubation then 48 h subculture, means of three experiments, read-out: IC50 T. vaginalis
Protocol: as §1

| SMILES | CC50 at 48 h ([1]; VERO cells) [µM] | SI = CC50/IC50 G. duodenalis (Giardia duodenalis) | IC50 (Giardia duodenalis; Giardia duodenalis, 48 h) [µM] | SI = CC50/IC50 T. vaginalis (Trichomonas vaginalis) | IC50 (Trichomonas vaginalis) [µM] | melting point | CC50 at 48 h ([1]; read-out: CC50 VERO Cells) [µM] | IC50 (Giardia duodenalis) [µM] |
| --- | --- | --- | --- | --- | --- | --- | --- | --- |
| Cc1ncc([N+](=O)[O-])n1CC(C)O (centres unmarked) [Secnidazole, secnidazole, reference compound] | > 100 | >24 | 4.11 ± 0.12 | >7 | 13.5 ± 1.23 | – | – | – |
| Cc1ncc([N+](=O)[O-])n1CCOC(=O)Nc1ccc(Cl)cc1 [Compound 3, 2-(2-methyl-5-nitro-1H-imidazol-1-yl)ethyl (4-chlorophenyl)carbamate] | > 100 | >87 | 1.14 ± 0.12 | >55 | 1.79 ± 0.12 | – | – | – |
| Cc1ncc([N+](=O)[O-])n1CCOC(=O)Nc1ccc(F)cc1 [Compound 4, 2-(2-methyl-5-nitro-1H-imidazol-1-yl)ethyl (4-fluorophenyl)carbamate] | > 100 | >49 | 2.03 ± 0.01 | >31 | 3.22 ± 0.21 | – | – | – |
| Cc1ncc([N+](=O)[O-])n1CC(C)OC(=O)Nc1ccc(Cl)cc1 (centres unmarked) [Compound 8, 1-methyl-2-(2-methyl-5-nitro-1H-imidazol-1-yl)ethyl (4-chlorophenyl)carbamate] | > 100 | >24 | 4.05 ± 0.24 | >16 | 5.93 ± 0.51 | 268.1 °C (dec.) | – | – |
| Cc1ncc([N+](=O)[O-])n1CCOC(=O)Nc1ccc([N+](=O)[O-])cc1 [Compound 5, 2-(2-methyl-5-nitro-1H-imidazol-1-yl)ethyl (4-nitrophenyl)carbamate] | – | >41 | 2.43 ± 0.02 | >16 | 6.25 ± 0.12 | – | > 100 | – |
| Cc1ncc([N+](=O)[O-])n1CC(C)OC(=O)Nc1ccc(F)cc1 (centres unmarked) [Compound 9, 1-methyl-2-(2-methyl-5-nitro-1H-imidazol-1-yl)ethyl (4-fluorophenyl)carbamate] | > 100 | >30 | 3.23 ± 0.11 | >20 | 4.82 ± 1.08 | 162.3 to 163.5 °C | – | – |
| Cc1ncc([N+](=O)[O-])n1CCOC(=O)Nc1ccccc1 [Compound 2, 2-(2-methyl-5-nitro-1H-imidazol-1-yl)ethyl phenylcarbamate] | > 100 | >102 | – | >1111 | 0.09 ± 0.01 | – | – | 0.98 ± 0.01 |
| Cc1ncc([N+](=O)[O-])n1CC(C)OC(=O)Nc1ccc([N+](=O)[O-])cc1 (centres unmarked) [Compound 10, 1-methyl-2-(2-methyl-5-nitro-1H-imidazol-1-yl)ethyl (4-nitrophenyl)carbamate] | – | >116 | 0.86 ± 0.09 | >10 | 9.99 ± 0.56 | 235.4 °C (dec.) | > 100 | – |
| Cc1ncc([N+](=O)[O-])n1CCOC(=O)NC1CCCCC1 [Compound 1, 2-(2-methyl-5-nitro-1H-imidazol-1-yl)ethyl cyclohexylcarbamate] | > 100 | >217 | 0.46 ± 0.01 | >1666 | 0.06 ± 0.01 | – | – | – |
| Cc1ncc([N+](=O)[O-])n1CC(C)OC(=O)Nc1ccccc1 (centres unmarked) [Compound 7, 1-methyl-2-(2-methyl-5-nitro-1H-imidazol-1-yl)ethyl phenylcarbamate] | > 100 | >59 | 1.67 ± 0.21 | >15 | 6.52 ± 0.71 | 238.9 to 240.5 °C | – | – |
| Cc1ncc([N+](=O)[O-])n1CCO [Metronidazole, metronidazole, reference compound] | > 100 | – | – | – | 0.93 ± 0.12 | – | – | – |
| Cc1ncc([N+](=O)[O-])n1CC(C)OC(=O)NC1CCCCC1 (centres unmarked) [Compound 6, 1-methyl-2-(2-methyl-5-nitro-1H-imidazol-1-yl)ethyl cyclohexylcarbamate] | > 100 | >37 | 2.64 ± 0.61 | >11 | 8.64 ± 0.73 | 219.2 to 222.7 °C | – | – |
